Like-named read-outs stand apart in the source and are kept apart here.
Columns and labels:
[1] = biological target: T1, Recombinant BTK^C481S kinase (Homo sapiens, UniProt Q06187, C481S); experiment: BTK C481S binding affinity (LanthaScreen TR-FRET); conditions: Kinase Tracer 236, 5 h incubation
T1 construct: purchased SignalChem
Description: (§1) BTK^C481S binding affinity of each compound tested was determined using a time-resolved fluorescence resonance energy transfer (TR-FRET) methodology. 5 nM Recombinant BTK^WT kinase, varying concentrations of inhibitor, 2 nM LanthaScreen™ Eu anti-His Antibody and 30 nM Kinase Tracer 236 was incubated in 1× LanthaScreen™ Kinase Buffer A for 5 h. Recombinant BTK^C481S kinase was purchased from SignalChem and all LanthaScreen™ components were purchased from Invitrogen. Measurements were performed in a reaction volume of 30 μL using half-area 96-well assay plates. The TR-FRET signal was read on a plate reader with an excitation wavelength of 340 nm and detection wavelengths of 615 and 665 nm. Binding affinity was determined for each compound by measuring TR-FRET signal at various concentrations of compound and plotting the relative fluorescence units against the inhibitor concentration to estimate the IC50 from log[Inhibitor] vs response using the Variable Slope model in Graphpad prism from Graphpad software (San Diego, Calif.).

[2] = test system: OCI-Ly10 human DLBCL cells; experiment: OCI-Ly10 anti-proliferative activity (Resazurin); assay type: cell-based; conditions: OCI-Ly10 cells, 72 h compound treatment, Resazurin, read-out: Proliferation Assay OCI-Ly10-20% FBS
Description: Compounds were assayed for effects on the growth of OCI-Ly10 human DLBCL cells that are dependent on NFκB signalling. […] Cells were then plated at 7.5×10^3 cells per well in 96-well plates in varying concentrations of compound and incubated for 72 h at 37° C. An additional plate of cells to be used as the Day 0 read was seeded without compound addition, Resazurin was added to each well, incubated for 5 h and the fluorescence measured at 590 nm. After 72 h of compound treatment, Resazurin was added to each well of the compound treated plates, incubated for 5 h and the fluorescence measured at 590 nm. The IC50 was then calculated by subtracting the average Day 0 value from each well value from the treated plates, each treatment was then calculated as a percentage of the DMSO control and the percentages plotted against the inhibitor concentration to estimate the IC50 from log[Inhibitor] vs response using the Variable Slope model in Graphpad prism from Graphpad software (San Diego, Calif.).

[3] = biological target: T2, Recombinant BTK^WT kinase (Homo sapiens, UniProt Q06187); experiment: BTK WT binding affinity (LanthaScreen TR-FRET); conditions: Kinase Tracer 236, 5 h incubation
T2 construct: purchased Invitrogen
Description: as §1, with “BTK^WT binding” for “BTK^C481S binding”, “methodology. 2.5” for “methodology. 5”, “and 15” for “and 30”, “Recombinant BTK” for “Recombinant BTK^C481S”, “kinase” for “kinase was purchased from SignalChem”

Recombinant EGFR = biological target: T3, Recombinant EGFR (Homo sapiens, UniProt P00533); experiment: EGFR binding affinity (LanthaScreen TR-FRET); conditions: Kinase Tracer 199, 5 h incubation
T3 construct: purchased Invitrogen
Description: EGFR binding affinity was determined using a time-resolved fluorescence resonance energy transfer (TR-FRET) methodology. […] Recombinant EGFR and all LanthaScreen™ components were purchased from Invitrogen. Measurements were performed in a reaction volume of 30 μL using half-area 96-well assay plates. […] Binding affinity was determined for each compound by measuring TR-FRET signal at various concentrations of compound and plotting the relative fluorescence units against the inhibitor concentration to estimate the IC50 from log[Inhibitor] vs response using the Variable Slope model in Graphpad prism from Graphpad software (San Diego, Calif.).

T2 sequence (Q06187 whole entry): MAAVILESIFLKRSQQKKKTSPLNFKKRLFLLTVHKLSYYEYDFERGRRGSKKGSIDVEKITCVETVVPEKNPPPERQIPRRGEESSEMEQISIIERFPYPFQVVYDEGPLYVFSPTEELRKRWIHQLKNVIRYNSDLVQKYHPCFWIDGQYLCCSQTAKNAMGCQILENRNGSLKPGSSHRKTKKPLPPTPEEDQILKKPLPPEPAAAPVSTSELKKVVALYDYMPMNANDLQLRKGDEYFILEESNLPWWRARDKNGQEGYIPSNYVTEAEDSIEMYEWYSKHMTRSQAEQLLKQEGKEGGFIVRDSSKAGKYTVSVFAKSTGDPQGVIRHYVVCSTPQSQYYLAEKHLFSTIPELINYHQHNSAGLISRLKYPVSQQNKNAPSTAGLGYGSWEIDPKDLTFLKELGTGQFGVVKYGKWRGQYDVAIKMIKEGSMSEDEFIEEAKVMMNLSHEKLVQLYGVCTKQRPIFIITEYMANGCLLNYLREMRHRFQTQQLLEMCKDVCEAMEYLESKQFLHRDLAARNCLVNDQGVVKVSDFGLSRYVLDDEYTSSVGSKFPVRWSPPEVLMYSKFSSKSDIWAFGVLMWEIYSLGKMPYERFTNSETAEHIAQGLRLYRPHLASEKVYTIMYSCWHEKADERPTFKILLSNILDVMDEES
T3 sequence (P00533 25-1210): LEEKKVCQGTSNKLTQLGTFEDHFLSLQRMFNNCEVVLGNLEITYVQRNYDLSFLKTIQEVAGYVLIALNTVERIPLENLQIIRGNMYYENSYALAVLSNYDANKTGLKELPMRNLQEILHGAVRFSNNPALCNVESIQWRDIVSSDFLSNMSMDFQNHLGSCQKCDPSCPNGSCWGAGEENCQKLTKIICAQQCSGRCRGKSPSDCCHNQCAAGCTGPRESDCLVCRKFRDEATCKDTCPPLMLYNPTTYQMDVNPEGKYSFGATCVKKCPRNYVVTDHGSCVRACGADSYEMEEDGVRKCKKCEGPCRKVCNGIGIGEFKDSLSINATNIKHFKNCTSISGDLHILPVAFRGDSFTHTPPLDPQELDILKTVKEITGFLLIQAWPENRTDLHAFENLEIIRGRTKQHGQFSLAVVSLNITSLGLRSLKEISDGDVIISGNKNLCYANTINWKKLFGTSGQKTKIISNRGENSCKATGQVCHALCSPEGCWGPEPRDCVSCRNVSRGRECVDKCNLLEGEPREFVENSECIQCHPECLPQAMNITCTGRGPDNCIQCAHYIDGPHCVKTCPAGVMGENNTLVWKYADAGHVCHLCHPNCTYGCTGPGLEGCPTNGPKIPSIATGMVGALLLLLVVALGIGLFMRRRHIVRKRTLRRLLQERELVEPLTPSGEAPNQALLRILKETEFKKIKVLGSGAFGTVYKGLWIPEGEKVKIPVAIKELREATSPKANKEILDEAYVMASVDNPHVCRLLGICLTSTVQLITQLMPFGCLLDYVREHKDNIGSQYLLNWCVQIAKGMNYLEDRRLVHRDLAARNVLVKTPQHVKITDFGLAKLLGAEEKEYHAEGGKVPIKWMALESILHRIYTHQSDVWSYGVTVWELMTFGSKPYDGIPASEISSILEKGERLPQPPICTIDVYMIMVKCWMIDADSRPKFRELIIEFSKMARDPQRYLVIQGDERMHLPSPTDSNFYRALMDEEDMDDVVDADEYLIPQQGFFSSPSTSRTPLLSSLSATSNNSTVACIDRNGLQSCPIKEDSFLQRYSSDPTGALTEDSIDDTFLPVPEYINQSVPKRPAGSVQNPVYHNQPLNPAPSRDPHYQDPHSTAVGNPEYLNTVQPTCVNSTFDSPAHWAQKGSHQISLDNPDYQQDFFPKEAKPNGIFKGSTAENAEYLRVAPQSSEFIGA
T1 sequence (Q06187 whole entry C481S): as the sequence (Q06187 whole entry) above, with C481S counted along it

Row | Compound | IC50 [1] | IC50 ([2]; Homo sapiens, OCI-Ly10, 72 h) | IC50 [3] | IC50 (Recombinant EGFR) | IC50 [2]
1 | COc1ccccc1C(=O)NCc1ccc(-c2nn(C3CCCC3)c(Cl)c2C(N)=O)cc1 [Example 78, 5-chloro-1-cyclopentyl-3-[4-[[(2-methoxybenzoyl)amino]methyl]phenyl]pyrazole-4-carboxamide] | 10 to 100 nM | 1000 to 10000 nM | 10 to 100 nM | > 10000 nM | –
2 | COc1ccccc1C(=O)NCc1ccc(-c2nn(C3CCCC3F)c(N)c2C(N)=O)cc1 (stereo not shown) [Example 103, 5-amino-1-(2-fluorocyclopentyl)-3-[4-[[(2-methoxybenzoyl)amino]methyl]phenyl]pyrazole-4-carboxamide] | < 10 nM | 10 to 100 nM | < 10 nM | 1000 to 10000 nM | –
3 | COc1ccc(F)cc1C(=O)NCc1ccc(-c2nn(C3CCOC3)c(N)c2C(N)=O)cc1F (stereo not shown) [Example 119, 5-amino-3-[3-fluoro-4-[[(5-fluoro-2-methoxy-benzoyl)amino]methyl]phenyl]-1-tetrahydrofuran-3-yl-pyrazole-4-carboxamide] | < 10 nM | 10 to 100 nM | < 10 nM | 1000 to 10000 nM | –
4 | COc1ccccc1C(=O)NCc1ccc(-c2nn(C3CC(C)OC(C)C3)c(N)c2C(N)=O)cc1 (stereo not shown) [Example 104, 5-amino-1-(2,6-dimethyltetrahydropyran-4-yl)-3-[4-[[(2-methoxybenzoyl)amino]methyl]phenyl]pyrazole-4-carboxamide] | < 10 nM | 100 to 1000 nM | 10 to 100 nM | 1000 to 10000 nM | –
5 | COc1ccccc1C(=O)NCc1ccc(-c2nn(C3CCOC3C)c(N)c2C(N)=O)cc1 (single isomer, unassigned) [Example 77, 5-amino-3-[4-[[(2-methoxybenzoyl)amino]methyl]phenyl]-1-[2-methyltetrahydrofuran-3-yl]pyrazole-4-carboxamide] | < 10 nM | – | < 10 nM | 100 to 1000 nM | 10 to 100 nM
6 | COc1ccc(F)cc1C(=O)NCc1cc(F)c(-c2nn(C3CCOC3)c(N)c2C(N)=O)cc1F (stereo not shown) [Example 153, 5-amino-3-[2,5-difluoro-4-[[(5-fluoro-2-methoxy-benzoyl)amino]methyl]phenyl]-1-tetrahydrofuran-3-yl-pyrazole-4-carboxamide] | < 10 nM | 100 to 1000 nM | 10 to 100 nM | > 10000 nM | –
7 | COc1ccccc1C(=O)NCc1ccc(-c2nn(C3CN(C)CC3(F)F)c(N)c2C(N)=O)cc1F (stereo not shown) [Example 166, 5-amino-1-(4,4-difluoro-1-methyl-pyrrolidin-3-yl)-3-[3-fluoro-4-[[(2-methoxybenzoyl)amino]methyl]phenyl]pyrazole-4-carboxamide] | < 10 nM | 10 to 100 nM | 10 to 100 nM | 1000 to 10000 nM | –
8 | COc1ccccc1C(=O)NC(C)c1ccc(-c2nn(C3CCCC3)c(N)c2C(N)=O)cc1 (stereo not shown) [Example 79, 5-amino-1-cyclopentyl-3-[4-[1-[(2-methoxybenzoyl)amino]ethyl]phenyl]pyrazole-4-carboxamide] | 100 to 1000 nM | 1000 to 10000 nM | 100 to 1000 nM | 1000 to 10000 nM | –

Results, then the molecule that gave them:

Row | IC50 [1] | IC50 ([2]; Homo sapiens, OCI-Ly10, 72 h) | IC50 [3] | IC50 (Recombinant EGFR) | IC50 [2] | Compound
9 | 10 to 100 nM | 100 to 1000 nM | 10 to 100 nM | 1000 to 10000 nM | – | COc1ccc(F)cc1C(=O)NCc1ccc(-c2nn(C(C3CCCCC3)C(F)(F)F)c(N)c2C(N)=O)cc1 (stereo not shown) [Example 192, 5-amino-1-(1-cyclohexyl-2,2,2-trifluoro-ethyl)-3-[4-[[(5-fluoro-2-methoxy-benzoyl)amino]methyl]phenyl]pyrazole-4-carboxamide]
10 | < 10 nM | 1000 to 10000 nM | < 10 nM | 100 to 1000 nM | – | COc1ccccc1C(=O)NCc1ccc(-c2nn(C3CCC(C(=O)O)CC3)c(N)c2C(N)=O)cc1 (mixture of isomers) [Example 74, 4-[5-amino-4-carbamoyl-3-[4-[[(2-methoxybenzoyl)amino]methyl]phenyl]pyrazol-1-yl]cyclohexanecarboxylic acid]
11 | < 10 nM | – | < 10 nM | 100 to 1000 nM | 100 to 1000 nM | COc1ccccc1C(=O)NCc1ccc(-c2nn(C3CCC(C(=O)N(C)C)CC3)c(N)c2C(N)=O)cc1 (single isomer, unassigned) [Example 57b, 5-amino-1-[4-(dimethylcarbamoyl)cyclohexyl]-3-[4-[[(2-methoxybenzoyl)amino]methyl]phenyl]pyrazole-4-carboxamide]
12 | < 10 nM | 10 to 100 nM | < 10 nM | 1000 to 10000 nM | – | COc1ccc(F)cc1C(=O)NCc1ccc(-c2nn(C(C(C)C)C(F)(F)F)c(N)c2C(N)=O)cc1 (stereo not shown) [Example 180, 5-amino-3-[4-[[(5-fluoro-2-methoxy-benzoyl)amino]methyl]phenyl]-1-[2-methyl-1-(trifluoromethyl)propyl]pyrazole-4-carboxamide]
13 | 10 to 100 nM | 100 to 1000 nM | 10 to 100 nM | 1000 to 10000 nM | – | COc1ccc(F)cc1C(=O)NCc1ccc(-c2nn(C(C(C)(C)C)C(F)(F)F)c(N)c2C(N)=O)cc1 (stereo not shown) [Example 194, 5-amino-1-[2,2-dimethyl-1-(trifluoromethyl)propyl]-3-[4-[[(5-fluoro-2-methoxy-benzoyl)amino]methyl]phenyl]pyrazole-4-carboxamide]
14 | 10 to 100 nM | 1000 to 10000 nM | 10 to 100 nM | 1000 to 10000 nM | – | COc1ccccc1C(=O)NCc1ccc(-c2nn(C3CC(C)(C)OC3(C)C)c(N)c2C(N)=O)cc1 (stereo not shown) [Example 82, 5-amino-3-[4-[[(2-methoxybenzoyl)amino]methyl]phenyl]-1-(2,2,5,5-tetramethyltetrahydrofuran-3-yl)pyrazole-4-carboxamide]
15 | < 10 nM | 10 to 100 nM | < 10 nM | 100 to 1000 nM | – | COc1ccccc1C(=O)NCc1ccc(-c2nn([C@H]3CC[C@@H](O)C3)c(N)c2C(N)=O)cc1 (relative stereo) [Example 20, 5-Amino-1-[(1S*,3R*)-3-hydroxycyclopentyl]-3-[4-[[(2-methoxybenzoyl)amino]methyl]phenyl]pyrazole-4-carboxamide]
16 | < 10 nM | 100 to 1000 nM | < 10 nM | 1000 to 10000 nM | – | COc1ccccc1C(=O)NCc1ccc(-c2nn(CC(F)(F)F)c(N)c2C(N)=O)cc1F [Example 129, 5-amino-3-[3-fluoro-4-[[(2-methoxybenzoyl)amino]methyl]phenyl]-1-(2,2,2-trifluoroethyl)pyrazole-4-carboxamide]
17 | < 10 nM | 10 to 100 nM | < 10 nM | 100 to 1000 nM | – | COc1ccccc1C(=O)NCc1ccc(-c2nn(C(C)(C)C)c(N)c2C(N)=O)cc1 [Example 3, 5-amino-1-tert-butyl-3-[4-[[(2-methoxybenzoyl)amino]methyl]phenyl]pyrazole-4-carboxamide]
18 | < 10 nM | 100 to 1000 nM | 10 to 100 nM | > 10000 nM | – | COc1ccccc1C(=O)NCc1ccc(-c2nn(C3CCOC3)c(N)c2C(N)=O)c(F)c1 (stereo not shown) [Example 100, 5-amino-3-[2-fluoro-4-[[(2-methoxybenzoyl)amino]methyl]phenyl]-1-tetrahydrofuran-3-yl-pyrazole-4-carboxamide]
19 | 10 to 100 nM | 1000 to 10000 nM | 10 to 100 nM | > 10000 nM | – | COc1ccccc1C(=O)NCc1ccc(-c2nn(CCO)c(N)c2C(N)=O)cc1 [Example 31, 5-Amino-1-(2-hydroxyethyl)-3-[4-[[(2-methoxybenzoyl)amino]methyl]phenyl]pyrazole-4-carboxamide]

— patent US11826351B2, “Compounds useful as kinase inhibitors” (Loxo Oncology, Inc., priority 2015, dated 2023)
